Laboratory results from PubChem BioAssay AID2060485 (Molecular Pharmacology Branch, DTP, NCI, 2025).

Tested on: A375 multi-cell spheroids with HUVEC/MSC, viability
Assay: Anticancer human tumor A375 cell line growth inhibition [GQUAD];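 note: spheroids exposed to compounds for seven days before readout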
Settings: for IC50: curve of first compound; for viability, T/C: stronger effect = lower value
Method in brief: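 Tumor cells were grown as complex spheroids with HUVEC endothelial cells and mesenchymal stem cells as stroma. G-quadruplex stabilizers were combined with targeted agents over half-log dilutions from near the clinical Cmax, or from 10 microM.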

[1] = second compound 0.0316 µM, first compound 0.0316 µM
[2] = second compound 0.0316 µM, first compound 0.1 µM
[3] = second compound 0.0316 µM, first compound 0.316 µM
[4] = second compound 0.0316 µM, first compound 1 µM
[5] = second compound 0.0316 µM, first compound 3.16 µM
[6] = second compound 0.0316 µM, first compound 10 µM
[7] = second compound 0.1 µM, first compound 0.0316 µM
[8] = second compound 0.1 µM, first compound 0.1 µM
[9] = second compound 0.1 µM, first compound 0.316 µM
[10] = second compound 0.1 µM, first compound 1 µM
[11] = second compound 0.1 µM, first compound 3.16 µM
[12] = second compound 0.1 µM, first compound 10 µM
[13] = second compound 0.316 µM, first compound 0.0316 µM
[14] = second compound 0.316 µM, first compound 0.1 µM
[15] = second compound 0.316 µM, first compound 0.316 µM
[16] = second compound 0.316 µM, first compound 1 µM
[17] = second compound 0.316 µM, first compound 3.16 µM
[18] = second compound 0.316 µM, first compound 10 µM
[19] = second compound 1 µM, first compound 0.0316 µM
[20] = second compound 1 µM, first compound 0.1 µM
[21] = second compound 1 µM, first compound 0.316 µM
[22] = second compound 1 µM, first compound 1 µM
[23] = second compound 1 µM, first compound 3.16 µM
[24] = second compound 1 µM, first compound 10 µM
[25] = second compound 3.16 µM, first compound 0.0316 µM
[26] = second compound 3.16 µM, first compound 0.1 µM
[27] = second compound 3.16 µM, first compound 0.316 µM
[28] = second compound 3.16 µM, first compound 1 µM
[29] = second compound 3.16 µM, first compound 3.16 µM
[30] = second compound 3.16 µM, first compound 10 µM
[31] = second compound 10 µM, first compound 0.0316 µM
[32] = second compound 10 µM, first compound 0.1 µM
[33] = second compound 10 µM, first compound 0.316 µM
[34] = second compound 10 µM, first compound 1 µM
[35] = second compound 10 µM, first compound 3.16 µM
[36] = second compound 10 µM, first compound 10 µM

`CCCS(=O)(=O)Nc1ccc(F)c(C(=O)c2c[nH]c3ncc(-c4ccc(Cl)cc4)cc23)c1F` + CN(C)c1ccc(Nc2c3ccc(NC(=O)CCN4CCCC4)cc3nc3cc(NC(=O)CCN4CCCC4)ccc23)cc1 was tested, and the IC50 (second compound 0.0316 µM) was < 31.6 nM, the IC50 (second compound 0.1 µM) was < 31.6 nM and the IC50 (second compound 0.316 µM) was < 31.6 nM. For the same compound, the IC50 (second compound 1 µM) was < 31.6 nM, the IC50 (second compound 3.16 µM) was < 31.6 nM and the IC50 (second compound 10 µM) was < 31.6 nM. For the same compound, the viability, T/C [1] was 40.3%, the viability, T/C [2] was 14.1% and the viability, T/C [3] was 8.13%. For the same compound, the viability, T/C [4] was 6.52%, the viability, T/C [5] was 4.92% and the viability, T/C [6] was 5.69%. It also gave a viability, T/C [7] of 45%, a viability, T/C [8] of 14.1% and a viability, T/C [9] of 7.72%. It also gave a viability, T/C [10] of 6.32%, a viability, T/C [11] of 5.28% and a viability, T/C [12] of 5.54%. The viability, T/C [13] was 39.4%, the viability, T/C [14] was 14.7% and the viability, T/C [15] was 8.27%. For the same compound, the viability, T/C [16] was 6.77%, the viability, T/C [17] was 4.48% and the viability, T/C [18] was 4.46%. The viability, T/C [19] was 34.9%, the viability, T/C [20] was 15% and the viability, T/C [21] was 7.95%. The viability, T/C [22] was 6.06%, the viability, T/C [23] was 4.78% and the viability, T/C [24] was 2.9%. The viability, T/C [25] was 36.5%, the viability, T/C [26] was 14.8% and the viability, T/C [27] was 6.95%. For the same compound, the viability, T/C [28] was 5.84%, the viability, T/C [29] was 4.55% and the viability, T/C [30] was 0.61%. It also gave a viability, T/C [31] of 36.9%, a viability, T/C [32] of 12.4% and a viability, T/C [33] of 7%. For the same compound, the viability, T/C [34] was 5.45%, the viability, T/C [35] was 4.34% and the viability, T/C [36] was 0.17%.
For `Cc1[nH]c2ccccc2c1CCNCc1ccc(/C=C/C(=O)NO)cc1` + CN(C)c1ccc(Nc2c3ccc(NC(=O)CCN4CCCC4)cc3nc3cc(NC(=O)CCN4CCCC4)ccc23)cc1, the IC50 (second compound 0.0316 µM) was 156 nM, the IC50 (second compound 0.1 µM) was 133 nM and the IC50 (second compound 0.316 µM) was 127 nM. For the same compound, the IC50 (second compound 1 µM) was 119 nM, the IC50 (second compound 3.16 µM) was 106 nM and the IC50 (second compound 10 µM) was 97.7 nM. For the same compound, the viability, T/C (second compound 0.0316 µM, first compound 0.000999 µM) was 111%, the viability, T/C (second compound 0.0316 µM, first compound 0.00316 µM) was 101% and the viability, T/C (second compound 0.0316 µM, first compound 0.00999 µM) was 110%. It also gave a viability, T/C [1] of 122%, a viability, T/C (second compound 0.0316 µM, first compound 0.0999 µM) of 76% and a viability, T/C [3] of 9.06%. For the same compound, the viability, T/C (second compound 0.1 µM, first compound 0.000999 µM) was 99.1%, the viability, T/C (second compound 0.1 µM, first compound 0.00316 µM) was 110% and the viability, T/C (second compound 0.1 µM, first compound 0.00999 µM) was 124%. For the same compound, the viability, T/C [7] was 127%, the viability, T/C (second compound 0.1 µM, first compound 0.0999 µM) was 64% and the viability, T/C [9] was 7.22%. It also gave a viability, T/C (second compound 0.316 µM, first compound 0.000999 µM) of 107%, a viability, T/C (second compound 0.316 µM, first compound 0.00316 µM) of 110% and a viability, T/C (second compound 0.316 µM, first compound 0.00999 µM) of 111%. For the same compound, the viability, T/C [13] was 114%, the viability, T/C (second compound 0.316 µM, first compound 0.0999 µM) was 61.5% and the viability, T/C [15] was 7.25%. For the same compound, the viability, T/C (second compound 1 µM, first compound 0.000999 µM) was 104%, the viability, T/C (second compound 1 µM, first compound 0.00316 µM) was 113% and the viability, T/C (second compound 1 µM, first compound 0.00999 µM) was 116%. It also gave a viability, T/C [19] of 110%, a viability, T/C (second compound 1 µM, first compound 0.0999 µM) of 58% and a viability, T/C [21] of 5.35%. The viability, T/C (second compound 3.16 µM, first compound 0.000999 µM) was 98.4%, the viability, T/C (second compound 3.16 µM, first compound 0.00316 µM) was 106% and the viability, T/C (second compound 3.16 µM, first compound 0.00999 µM) was 113%. For the same compound, the viability, T/C [25] was 114%, the viability, T/C (second compound 3.16 µM, first compound 0.0999 µM) was 52.3% and the viability, T/C [27] was 5.53%. It also gave a viability, T/C (second compound 10 µM, first compound 0.000999 µM) of 111%, a viability, T/C (second compound 10 µM, first compound 0.00316 µM) of 98.7% and a viability, T/C (second compound 10 µM, first compound 0.00999 µM) of 112%. For the same compound, the viability, T/C [31] was 106%, the viability, T/C (second compound 10 µM, first compound 0.0999 µM) was 48.9% and the viability, T/C [33] was 3.5%.
Work on `CC1COCCN1c1cc(C2(S(C)(=N)=O)CC2)nc(-c2ccnc3[nH]ccc23)n1` (stereo unspecified) + Cc1[nH]c2ccc(F)cc2c1-c1nc2c3cccnc3c3ncccc3c2[nH]1 yielded an IC50 (second compound 0.0316 µM) of 7110 nM, an IC50 (second compound 0.1 µM) of 8020 nM and an IC50 (second compound 0.316 µM) of 9010 nM. It also gave an IC50 (second compound 1 µM) of 7960 nM, an IC50 (second compound 3.16 µM) of 1300 nM and an IC50 (second compound 10 µM) of 2110 nM. The viability, T/C [1] was 105%, the viability, T/C [2] was 107% and the viability, T/C [3] was 99.4%. The viability, T/C [4] was 92%, the viability, T/C [5] was 64.5% and the viability, T/C [6] was 43.9%. For the same compound, the viability, T/C [7] was 113%, the viability, T/C [8] was 106% and the viability, T/C [9] was 107%. For the same compound, the viability, T/C [10] was 98.2%, the viability, T/C [11] was 74.4% and the viability, T/C [12] was 44.2%. For the same compound, the viability, T/C [13] was 106%, the viability, T/C [14] was 105% and the viability, T/C [15] was 112%. For the same compound, the viability, T/C [16] was 109%, the viability, T/C [17] was 78.7% and the viability, T/C [18] was 47.2%. For the same compound, the viability, T/C [19] was 108%, the viability, T/C [20] was 109% and the viability, T/C [21] was 115%. The viability, T/C [22] was 112%, the viability, T/C [23] was 82% and the viability, T/C [24] was 42%. For the same compound, the viability, T/C [25] was 107%, the viability, T/C [26] was 88.7% and the viability, T/C [27] was 83.3%. It also gave a viability, T/C [28] of 57%, a viability, T/C [29] of 27.8% and a viability, T/C [30] of 12.9%. For the same compound, the viability, T/C [31] was 94.5%, the viability, T/C [32] was 107% and the viability, T/C [33] was 104%. The viability, T/C [34] was 74.9%, the viability, T/C [35] was 36.9% and the viability, T/C [36] was 15.4%.
